In PubChem BioAssay (NCI):
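Interpolation was linear, between the two tested concentrations surrounding the appropriate level; five concentrations were tested over 48 hours in 96-well plates. The concentration for 50% growth inhibition is given as GI50. TGI denotes the concentration required for complete inhibition of growth.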

Columns and labels:
Test in all cases: NCI-60 cell line screen, 48 h
UACC-62 melanoma = system: UACC-62 melanoma
SF-295 CNS = system: SF-295 CNS
BT-549 breast = system: BT-549 breast
HT29 colon = system: HT29 colon
SK-MEL-2 melanoma = system: SK-MEL-2 melanoma
ACHN renal = system: ACHN renal
LOX IMVI melanoma = system: LOX IMVI melanoma
786-0 renal = system: 786-0 renal
PC-3 prostate = system: PC-3 prostate
MALME-3M melanoma = system: MALME-3M melanoma

Question: For COc1cccc(C#Cc2ccccc2C#CCCCCO)c1, which GI50 (UACC-62 melanoma) is on record?
Answer: 5.7 µM

Question: And the TGI (UACC-62 melanoma)?
Answer: 19.8 µM

Question: What about the GI50 (SF-295 CNS) of the same compound?
Answer: 7.94 µM

Question: What about the TGI (SF-295 CNS) of the same compound?
Answer: 22.1 µM

Question: What about the GI50 (BT-549 breast) of the same compound?
Answer: 3.07 µM

Question: What about the TGI (BT-549 breast) of the same compound?
Answer: 20.2 µM

Question: What about the GI50 (HT29 colon) of the same compound?
Answer: 12.1 µM

Question: What about the TGI (HT29 colon) of the same compound?
Answer: 27.9 µM

Question: And the GI50 (SK-MEL-2 melanoma)?
Answer: 20.5 µM

Question: What about the TGI (SK-MEL-2 melanoma) of the same compound?
Answer: 44.8 µM

Question: What about the GI50 (ACHN renal) of the same compound?
Answer: 11.8 µM

Question: What about the TGI (ACHN renal) of the same compound?
Answer: 25.8 µM

Question: What about the GI50 (LOX IMVI melanoma) of the same compound?
Answer: 6.3 µM

Question: What about the TGI (LOX IMVI melanoma) of the same compound?
Answer: 21.2 µM

Question: And the GI50 (786-0 renal)?
Answer: 12.8 µM

Question: What about the TGI (786-0 renal) of the same compound?
Answer: 28 µM

Question: And the GI50 (PC-3 prostate)?
Answer: 9.83 µM

Question: What about the TGI (PC-3 prostate) of the same compound?
Answer: 23.7 µM

Question: And the GI50 (MALME-3M melanoma)?
Answer: 13.9 µM

Question: And the TGI (MALME-3M melanoma)?
Answer: 37.9 µM

Question: Which results are given for CC1=C(O)C(=O)C=C2C1=CC=C1[C@@]2(C)CC[C@@]2(C)[C@@H]3C[C@](C)(C(=O)O)CC[C@]3(C)CC[C@]12C?
Answer: TGI (UACC-62 melanoma): 0.0669 µM; TGI (SF-295 CNS): 0.54 µM; TGI (BT-549 breast): 0.0347 µM; TGI (HT29 colon): 0.145 µM; TGI (SK-MEL-2 melanoma): 0.219 µM; TGI (ACHN renal): 0.0459 µM; TGI (LOX IMVI melanoma): 0.0414 µM; TGI (786-0 renal): 0.0294 µM; TGI (PC-3 prostate): 0.185 µM; TGI (MALME-3M melanoma): 0.152 µM

Question: How did the GI50 (UACC-62 melanoma) turn out when CCn1c(SCc2ccc(C)cc2)nnc1-c1nn(-c2ccc(Cl)cc2Cl)c(-c2ccc(Cl)cc2)c1C was run?
Answer: 2.02 µM

Question: What about the TGI (UACC-62 melanoma) of the same compound?
Answer: 10.6 µM

Question: And the GI50 (SF-295 CNS)?
Answer: 2.4 µM

Question: And the TGI (SF-295 CNS)?
Answer: 11.7 µM

Question: And the GI50 (BT-549 breast)?
Answer: 1.79 µM

Question: What about the TGI (BT-549 breast) of the same compound?
Answer: 5.75 µM

Question: What about the GI50 (HT29 colon) of the same compound?
Answer: 1.11 µM

Question: And the TGI (HT29 colon)?
Answer: 10.6 µM

Question: What about the GI50 (SK-MEL-2 melanoma) of the same compound?
Answer: 3.01 µM

Question: What about the TGI (SK-MEL-2 melanoma) of the same compound?
Answer: 12.5 µM

Question: And the GI50 (ACHN renal)?
Answer: 2.74 µM

Question: And the TGI (ACHN renal)?
Answer: 10.4 µM

Question: What about the GI50 (LOX IMVI melanoma) of the same compound?
Answer: 2.72 µM

Question: And the TGI (LOX IMVI melanoma)?
Answer: 10.7 µM

Question: What about the GI50 (786-0 renal) of the same compound?
Answer: 2.69 µM

Question: What about the TGI (786-0 renal) of the same compound?
Answer: 12.2 µM

Question: What about the GI50 (PC-3 prostate) of the same compound?
Answer: 0.49 µM

Question: What about the TGI (PC-3 prostate) of the same compound?
Answer: 10.4 µM

Question: And the GI50 (MALME-3M melanoma)?
Answer: 2.15 µM

Question: And the TGI (MALME-3M melanoma)?
Answer: 8.88 µM

Question: Which results are given for COc1cccc2c(=O)c3c(sc12)c(N1CCNCC1)nc1ccccc13?
Answer: GI50 (UACC-62 melanoma): 1.73 µM; TGI (UACC-62 melanoma): 3.19 µM; GI50 (SF-295 CNS): 1.82 µM; TGI (SF-295 CNS): 3.37 µM; GI50 (BT-549 breast): 13.3 µM; TGI (BT-549 breast): 27.5 µM; GI50 (HT29 colon): 1.46 µM; TGI (HT29 colon): 3.11 µM; GI50 (SK-MEL-2 melanoma): 1.94 µM; TGI (SK-MEL-2 melanoma): 3.88 µM; GI50 (ACHN renal): 1.6 µM; TGI (ACHN renal): 2.97 µM; GI50 (LOX IMVI melanoma): 1.56 µM; TGI (LOX IMVI melanoma): 3.01 µM; GI50 (786-0 renal): 1.73 µM; TGI (786-0 renal): 3.39 µM; GI50 (PC-3 prostate): 1.62 µM; TGI (PC-3 prostate): 3.28 µM; GI50 (MALME-3M melanoma): 1.65 µM; TGI (MALME-3M melanoma): 3.24 µM

Question: CC(=O)C(=CN1CCN(C(=O)c2ccco2)C1=S)C(C)=O was tested. Which GI50 (UACC-62 melanoma) did it give?
Answer: 5.52 µM

Question: And the TGI (UACC-62 melanoma)?
Answer: 19.1 µM

Question: And the GI50 (SF-295 CNS)?
Answer: 21.7 µM

Question: And the TGI (SF-295 CNS)?
Answer: 52.6 µM

Question: What about the GI50 (BT-549 breast) of the same compound?
Answer: 14 µM

Question: What about the TGI (BT-549 breast) of the same compound?
Answer: 30.1 µM

Question: And the GI50 (HT29 colon)?
Answer: 17.1 µM

Question: And the TGI (HT29 colon)?
Answer: 53.8 µM

Question: And the GI50 (SK-MEL-2 melanoma)?
Answer: 3.34 µM

Question: And the TGI (SK-MEL-2 melanoma)?
Answer: 8.52 µM

Question: What about the GI50 (ACHN renal) of the same compound?
Answer: 2.87 µM

Question: What about the TGI (ACHN renal) of the same compound?
Answer: 8.04 µM

Question: And the GI50 (LOX IMVI melanoma)?
Answer: 2.12 µM

Question: What about the TGI (LOX IMVI melanoma) of the same compound?
Answer: 4.62 µM

Question: What about the GI50 (786-0 renal) of the same compound?
Answer: 5.34 µM

Question: What about the TGI (786-0 renal) of the same compound?
Answer: 18.8 µM

Question: What about the GI50 (PC-3 prostate) of the same compound?
Answer: 4.83 µM

Question: And the TGI (PC-3 prostate)?
Answer: 46.6 µM

Question: What about the GI50 (MALME-3M melanoma) of the same compound?
Answer: 20.7 µM

Question: What about the TGI (MALME-3M melanoma) of the same compound?
Answer: 47.9 µM

Question: O=S(=O)(Nc1cc(Sc2cccc3cccnc23)c(O)c2ccccc12)c1ccccc1 was tested. Which GI50 (UACC-62 melanoma) did it give?
Answer: 1.49 µM

Question: What about the TGI (UACC-62 melanoma) of the same compound?
Answer: 4.33 µM

Question: And the GI50 (SF-295 CNS)?
Answer: 2.84 µM

Question: And the TGI (SF-295 CNS)?
Answer: 15 µM

Question: And the GI50 (BT-549 breast)?
Answer: 2.9 µM

Question: And the TGI (BT-549 breast)?
Answer: 16 µM

Question: What about the GI50 (HT29 colon) of the same compound?
Answer: 2.42 µM

Question: And the TGI (HT29 colon)?
Answer: 14.4 µM

Question: What about the GI50 (SK-MEL-2 melanoma) of the same compound?
Answer: 2.48 µM

Question: What about the TGI (SK-MEL-2 melanoma) of the same compound?
Answer: 13.4 µM

Question: And the GI50 (ACHN renal)?
Answer: 0.772 µM

Question: What about the TGI (ACHN renal) of the same compound?
Answer: 5.54 µM

Question: And the GI50 (LOX IMVI melanoma)?
Answer: 0.522 µM

Question: What about the TGI (LOX IMVI melanoma) of the same compound?
Answer: 10.1 µM

Question: What about the GI50 (786-0 renal) of the same compound?
Answer: 0.79 µM

Question: And the TGI (786-0 renal)?
Answer: 10.7 µM

Question: And the GI50 (PC-3 prostate)?
Answer: 0.467 µM

Question: And the TGI (PC-3 prostate)?
Answer: 13.1 µM

Question: And the GI50 (MALME-3M melanoma)?
Answer: 2.72 µM

Question: What about the TGI (MALME-3M melanoma) of the same compound?
Answer: 9.65 µM
